# Test results published in patent publication US20050244502A1, “Composition for enhancing absorption of a drug and method” (priority 2004, published 2005).
# Assays:
# in vitro = settings: human
# in vivo = settings: rat, 1 mg/kg
# From the text: A dosing solution of DDAVP in water, C971P, LPC or C971P/LPC was directly injected into a 10-cm segment of rat colon. Blood was collected over a 2 hr period to assess the extent of systemic absorption from the various formulations.
# [1] = Intra-nasal DADLE absorption in rabbits; type: in vivo; settings: DADLE 1 mg/kg via syringe microsprayer in rabbit nostril
# From the text: Intra-nasal delivery of the model pentapepdide DADLE in water, C971P, LPC or C971P/LPC formulation was studied in rabbits. […] The C971P/LPC formulation enhanced DADLE absorption by >50% compared to LPC alone.
# Calu-3 cells [2] = assay: Acute cytotoxicity assay (Alamar Blue) in Calu-3 cells; type: cell-based, human
# From the text: FIG. 2 depicts an Alamar Blue Assay—Black bar indicates the % of the cell survival after 2 hrs treatment of LPC at 0-0.25%; gray bar indicates the combination of LPC with 0.5% of C971P.
# This assay is based on the ability of live cells to enzymatically reduce Alamar blue dye which indicates the relative percentage of cells that survive the exposure to the various treatments. Calu-3 cells exposed to buffer for 2 hr were used as the positive control with 100% cell survival.
# Calu-3 cells [3] = assay: Permeability (Papp) of DDAVP across Calu-3 cell monolayers on Transwell filters; settings: for additive permeability enhancement or change in epithelial resistance in the presence of Carbopol polymers (in words): enhancer with Carbopol polymers (Example 11)
# Calu-3 cells [4] = assay: TEER measurement (cell integrity and reversibility) in Calu-3 cells; type: cell-based, human
# From the text: The asterisk (delete scatters with) (*) represent (delete marker present) those samples where TEER recovered to the original level within 12 hrs after washout of the treatment.
# Transepithelial electrical resistance (TEER) measures the integrity of the epithelial barrier. […] Return of the TEER values to initial levels indicates recovery to baseline barrier properties. TEER measurements were done in confluent highly resistant Calu-3 cells cultured in Transwell filters with handheld STX-2 electrodes connected to EVOM Voltohmmeter. […] After the removal of apical treatment, TEER recovered to the original values.
molecule,measurement,setting,value
"NC(=O)CC[C@@H]1NC(=O)[C@H](Cc2ccccc2)NC(=O)[C@H](Cc2ccc(O)cc2)NC(=O)CCSSC[C@@H](C(=O)N2CCC[C@H]2C(=O)N[C@H](CCCN=C(N)N)C(=O)NCC(N)=O)NC(=O)[C@H](CC(N)=O)NC1=O [DDAVP, 1 deamino-8-D-arginin-vasopressin]",Papp,in vitro,0.04 ± 0.003 ×10⁻⁶ cm/s
same,bioavailability,in vivo,0.1 ± 0.1%
L-α-lysophosphatidylcholine [LPC],"DADLE exposure, times higher than water control",[1],2.4 times
same,cell survival,"Calu-3 cells [2]; 0.05% LPC alone, 2 hr, buffer control = 100%",About 82%
same,cell survival,"Calu-3 cells [2]; 0.05% LPC with C971P (0.5%) in the formulation, 2 hr",95%
same,cell survival,"Calu-3 cells [2]; 0.1% LPC alone, 2 hr",41%
same,cell survival,"Calu-3 cells [2]; 0.1% LPC in the presence of C971P (0.5%), 2 hr",> 90%
same,cell survival (in words),"Calu-3 cells [2]; LPC alone 0-0.25%, 2 hr",dose-dependent reduction in survival
same,DDAVP Papp increase compared with 0.5% C971P alone,"Calu-3 cells [3]; LPC 0.01-0.25% combined with 0.5% C971P, dose-dependent, Calu-3 cells",up to 32 fold
same,TEER recovery after removal of treatment (in words),Calu-3 cells [4]; 0.05% LPC with C971P also present,recovered
same,TEER change (in words),"Calu-3 cells [4]; LPC alone, 2 hr treatment",dramatic drop in TEER
same,extent of TEER drop (in words),"Calu-3 cells [4]; LPC with C971P present in the formulation, 2 hr treatment",significantly reduced
Phosphatidylcholine [Lecithin],DDAVP permeability enhancement or TEER drop (in words),Calu-3 cells [3]; Carbopol added along with phosphatidylcholine,no significant enhancement in permeability or drop in TEER
same,DDAVP Permeability,Calu-3 cells [3]; Lecithin 1 mM,0.045 ± 0.003 ×10⁻⁶ cm/s
same,DDAVP Permeability,Calu-3 cells [3]; Lecithin 2 mM,0.044 ± 0.003 ×10⁻⁶ cm/s
same,DDAVP Permeability,Calu-3 cells [3]; Lecithin 5 mM,0.044 ± 0.004 ×10⁻⁶ cm/s
same,additive permeability enhancement or change in epithelial resistance in the presence of Carbopol polymers (in words),Calu-3 cells [3],do not show additive permeability enhancement advantage or change in epithelial resistance
same,DDAVP permeability enhancement or TEER drop (in words),"Calu-3 cells [3]; phosphatidylcholine alone, Calu-3 cells",failed to show any measurable enhancement or TEER drop
same,TEER after 2 hr (% initial),Calu-3 cells [4]; Lecithin 1 mM,No change
same,TEER after 2 hr (% initial),Calu-3 cells [4]; Lecithin 2 mM,No change
same,TEER after 2 hr (% initial),Calu-3 cells [4]; Lecithin 5 mM,No change
CCCCCCCCCC(=O)[O-].[Na+] [sodium caprate],effect of Carbopol 971P on acute cytotoxicity of the enhancer (in words),"Calu-3 cells [2]; enhancer combined with Carbopol 971P, Alamar Blue, Calu-3 cells",failed to reduce the acute cytotoxicity
same,additive permeability enhancement or change in epithelial resistance in the presence of Carbopol polymers (in words),Calu-3 cells [3],do not show additive permeability enhancement advantage or change in epithelial resistance
